Biological target: T1, Human Polθ polymerase domain (aa1820-2590) (Homo sapiens, UniProt O75417)
T1 construct: Human Polθ polymerase domain (aa1820-2590) was expressed in E. coli; made in house; host or cells: E. coli
T1 sequence (O75417 1820-2590): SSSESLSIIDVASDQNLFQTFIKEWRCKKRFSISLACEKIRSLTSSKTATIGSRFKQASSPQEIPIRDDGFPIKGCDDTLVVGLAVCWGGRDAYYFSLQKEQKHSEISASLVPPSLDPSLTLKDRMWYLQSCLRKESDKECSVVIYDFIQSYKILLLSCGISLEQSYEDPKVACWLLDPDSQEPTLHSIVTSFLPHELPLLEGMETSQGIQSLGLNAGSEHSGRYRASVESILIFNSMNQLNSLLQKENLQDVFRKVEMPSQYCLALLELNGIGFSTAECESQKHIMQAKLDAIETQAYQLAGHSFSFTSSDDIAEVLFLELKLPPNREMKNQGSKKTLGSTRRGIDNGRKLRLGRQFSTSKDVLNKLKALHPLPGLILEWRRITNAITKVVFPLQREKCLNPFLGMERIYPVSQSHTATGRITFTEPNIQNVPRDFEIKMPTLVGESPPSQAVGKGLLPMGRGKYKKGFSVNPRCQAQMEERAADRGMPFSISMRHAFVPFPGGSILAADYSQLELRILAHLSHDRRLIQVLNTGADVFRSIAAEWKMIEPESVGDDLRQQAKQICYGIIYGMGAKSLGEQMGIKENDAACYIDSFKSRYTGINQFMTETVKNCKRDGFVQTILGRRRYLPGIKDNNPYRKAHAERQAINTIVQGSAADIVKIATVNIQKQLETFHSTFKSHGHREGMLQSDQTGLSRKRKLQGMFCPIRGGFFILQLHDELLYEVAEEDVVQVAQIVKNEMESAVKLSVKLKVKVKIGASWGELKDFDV
Assay: Polθ Polymerase Domain Kinact/KI Assay (PicoGreen)
Type: biochemical
Details: 0.8 nM Polθ, 100 nM DNA substrate, kobs vs [I] fit for 2-step covalent inhibitor
Outline: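 PicoGreen fluorescence read-out of primer extension; progress curves per inhibitor concentration fitted for kobs, then kobs vs [I] fitted to a two-step covalent model to give Kinact and KI. Conditions: 0.8 nM enzyme, 100 nM DNA substrate, […].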

`Cc1cc(C(F)(F)F)cc(N2C(=O)C[C@@H]3CN(CCOCC4(F)CN(C(=O)/C=C/CN(C)C)C4)c4c(Cl)cccc4N(C)C(=O)[C@H]32)n1` [Example 304, (3aR,11aS)-6-chloro-5-(2-((1-((E)-4-(dimethylamino)but-2-enoyl)-3-fluoroazetidin-3-yl)methoxy)ethyl)-10-methyl-1-(6-methyl-4-(trifluoromethyl)pyridin-2-yl)-1,3a,4,5,10,11a-hexahydro-2H-benzo[b]pyrrolo[2,3-f][1,4]diazocine-2,11(3H)-dione] was tested. Which Kinact/Kl did it give?
Its Kinact/Kl is 1.87e+06 M⁻¹ s⁻¹.

For `Cc1cc(C(F)(F)F)cc(N2C(=O)C[C@@H]3CN(C[C@H]4C[C@@H](NC(=O)/C=C/CN(C)C)C4)c4c(C)cccc4N(C)C(=O)[C@H]32)n1` [Example 332, (E)-N-((1S,3s)-3-(((3aR,11aS)-6,10-dimethyl-1-(6-methyl-4-(trifluoromethyl)-pyridin-2-yl)-2,11-dioxo-1,2,3,3a,4,10, 11,11a-octahydro-5H-benzo[b]pyrrolo [2,3-f][1,4]diazocin-5-yl)methyl)cyclo-butyl)-4-(dimethyl-amino)but-2-enamide], which Kinact/Kl is on record?
The Kinact/Kl was 1.3e+06 M⁻¹ s⁻¹.

`Cc1cc(C(F)(F)F)cc(N2C(=O)C[C@@H]3CN(Cc4ccc5c(c4)CN(C(=O)/C=C/CN(C)C)[C@H]5CC#N)c4c(Cl)cccc4N(C)C(=O)[C@H]32)n1` (racemic) [Example 310a, 2-((S/R)-5-(((3aR,11aS)-6-chloro-10-methyl-1-(6-methyl-4-(trifluoromethyl)pyridin-2-yl)-2,11-dioxo-1,2,3,3a,4,10,11,11a-octahydro-5H-benzo[b]pyrrolo[2,3-f][1,4]diazocin-5-yl)methyl)-2-((E)-4-(dimethylamino)but-2-enoyl)isoindolin-1-yl)acetonitrile] was tested. Which Kinact/Kl did it give?
Its Kinact/Kl is 2.31e+06 M⁻¹ s⁻¹.

With `C=CC(=O)N1CC[C@H](NCCN2C[C@H]3CC(=O)N(c4cc(C(F)(F)F)cc(C)n4)[C@@H]3C(=O)N(C)c3cccc(Cl)c32)[C@H](F)C1` [Example 66, (3aR,11aS)-5-(2-(((3R,4S)-1-acryloyl-3-fluoropiperidin-4-yl)amino)ethyl)-6-chloro-10-methyl-1-(6-methyl-4-(trifluoromethyl)pyridin-2-yl)-1,3a,4,5,10,11a-hexahydro-2H-benzo[b]pyrrolo[2,3-f][1,4]diazocine-2,11(3H)-dione] as the molecule, how does the Kinact/Kl read?
The Kinact/Kl was 2.11e+06 M⁻¹ s⁻¹.

How did the Kinact/Kl turn out when `C=C(CN(C)C)C(=O)N1CC(C(=O)N(C)CCN2C[C@H]3CC(=O)N(c4cc(C(F)(F)F)cc(C)n4)[C@@H]3C(=O)N(C)c3cccc(Cl)c32)C1` [Example 65, N-(2-((3aR,11aS)-6-chloro-10-methyl-1-(6-methyl-4-(trifluoromethyl)pyridin-2-yl)-2,11-dioxo-1,2,3,3a,4,10,11,11a-octahydro-5H-benzo[b]pyrrolo[2,3-f][1,4]diazocin-5-yl)ethyl)-1-(2-((dimethylamino)methyl)acryloyl)-N-methylazetidine-3-carboxamide] was run?
The Kinact/Kl was 4.96e+06 M⁻¹ s⁻¹.

For `C=CC(=O)N1Cc2cc(CN3C[C@H]4CC(=O)N(c5cc(C(F)(F)F)cc(C)n5)[C@@H]4C(=O)N(C)c4cccc(Cl)c43)nn2C[C@@H]1C` (racemic) [Example 294b, (3aR,11aS)-5-(((S/R)-5-acryloyl-6-methyl-4,5,6,7-tetrahydropyrazolo[1,5-a]pyrazin-2-yl)methyl)-6-chloro-10-methyl-1-(6-methyl-4-(trifluoromethyl)pyridin-2-yl)-1,3a,4,5,10,11a-hexahydro-2H-benzo[b]pyrrolo[2,3-f][1,4]diazocine-2,11(3H)-dione], which Kinact/Kl is on record?
The Kinact/Kl was 2.48e+06 M⁻¹ s⁻¹.

With `C=CC(=O)N1Cc2cnc(CN3C[C@H]4CC(=O)N(c5cc(C(F)(F)F)cc(C)n5)[C@@H]4C(=O)N(C)c4cccc(Cl)c43)cc2C1` [Example 277, (3aR,11aS)-5-((2-acryloyl-2,3-dihydro-1H-pyrrolo[3,4-c]pyridin-6-yl)methyl)-6-chloro-10-methyl-1-(6-methyl-4-(trifluoromethyl)pyridin-2-yl)-1,3a,4,5,10,11a-hexahydro-2H-benzo[b]pyrrolo[2,3-f][1,4]diazocine-2,11(3H)-dione] as the molecule, how does the Kinact/Kl read?
The Kinact/Kl was 80000 M⁻¹ s⁻¹.

`C=CC(=O)N1Cc2cc(CN3C[C@H]4CC(=O)N(c5cc(C(F)(F)F)cc(C)n5)[C@@H]4C(=O)N(C)c4cccc(C)c43)cnc2[C@H]1COC` (racemic) [Example 234, (3aR,11aS)-5-(((S/R)-6-acryloyl-7-(methoxymethyl)-6,7-dihydro-5H-pyrrolo[3,4-b]pyridin-3-yl)methyl)-6,10-dimethyl-1-(6-methyl-4-(trifluoromethyl)pyridin-2-yl)-1,3a,4,5,10,11a-hexahydro-2H-benzo[b]pyrrolo[2,3-f][1,4]diazocine-2,11(3H)-dione] was tested. Which Kinact/Kl did it give?
The Kinact/Kl was 5.85e+06 M⁻¹ s⁻¹.

With `C=CC(=O)N1CC(N2CCN(CCN3C[C@H]4CC(=O)N(c5cc(C(F)(F)F)cc(C)n5)[C@@H]4C(=O)N(C)c4cccc(C)c43)CC2)C1` [Example 115, (3aR,11aS)-5-(2-(4-(1-acryloylazetidin-3-yl)piperazin-1-yl)ethyl)-6,10-dimethyl-1-(6-methyl-4-(trifluoromethyl)pyridin-2-yl)-1,3a,4,5,10,11a-hexahydro-2H-benzo[b]pyrrolo[2,3-f][1,4]diazocine-2,11(3H)-dione] as the molecule, how does the Kinact/Kl read?
Its Kinact/Kl is 2.35e+06 M⁻¹ s⁻¹.

For `C=CC(=O)N1Cc2nc(CN3C[C@H]4CC(=O)N(c5cc(C(F)(F)F)cc(C)n5)[C@@H]4C(=O)N(C)c4cccc(C)c43)cn2C[C@@H]1C` (racemic) [Example 206b, (3aR,11aS)-5-(((S/R)-7-acryloyl-6-methyl-5,6,7,8-tetrahydroimidazo [1,2-a]pyrazin-2-yl)methyl)-6,10-dimethyl-1-(6-methyl-4-(trifluoromethyl)pyridin-2-yl)-1,3a,4,5,10,11a-hexahydro-2H-benzo[b]pyrrolo [2,3-f][1,4]diazocine-2,11(3H)-dione], which Kinact/Kl is on record?
Its Kinact/Kl is 4.19e+06 M⁻¹ s⁻¹.

How did the Kinact/Kl turn out when `C=C(CN1CCN(C)CC1)C(=O)N1CC(CCCCN2C[C@H]3CC(=O)N(c4cc(C(F)(F)F)cc(C)n4)[C@@H]3C(=O)N(C)c3cccc(Cl)c32)C1` [Example 167, (3aR,11aS)-6-chloro-10-methyl-1-(6-methyl-4-(trifluoromethyl)pyridin-2-yl)-5-(4-(1-(2-((4-methylpiperazin-1-yl)methyl)acryloyl)azetidin-3-yl)butyl)-1,3a,4,5,10,11a-hexahydro-2H-benzo[b]pyrrolo[2,3-f][1,4]diazocine-2,11(3H)-dione] was run?
Its Kinact/Kl is 4.66e+06 M⁻¹ s⁻¹.

For `C=CC(=O)N1CCC[C@@H]1c1nnc(CN2C[C@H]3CC(=O)N(c4cc(C(F)(F)F)cc(C)n4)[C@@H]3C(=O)N(C)c3cccc(C)c32)o1` [Example 272, (3aR,11aS)-5-((5-((R)-1-acryloylpyrrolidin-2-yl)-1,3,4-oxadiazol-2-yl)methyl)-6,10-dimethyl-1-(6-methyl-4-(trifluoromethyl)pyridin-2-yl)-1,3a,4,5,10,11a-hexahydro-2H-benzo[b]pyrrolo[2,3-f][1,4]diazocine-2,11(3H)-dione], which Kinact/Kl is on record?
The Kinact/Kl was 33000 M⁻¹ s⁻¹.

With `C=CC(=O)N1CC(n2cnc(CN3C[C@H]4CC(=O)N(c5cc(C(F)(F)F)cc(C)n5)[C@@H]4C(=O)N(C)c4cccc(Cl)c43)c2)C1` [Example 39, (3aR,11aS)-5-((1-(1-acryloylazetidin-3-yl)-1H-imidazol-4-yl)methyl)-6-chloro-10-methyl-1-(6-methyl-4-(trifluoromethyl)pyridin-2-yl)-1,3a,4,5,10,11a-hexahydro-2H-benzo[b]pyrrolo[2,3-f][1,4]diazocine-2,11(3H)-dione] as the molecule, how does the Kinact/Kl read?
The Kinact/Kl was 3.42e+06 M⁻¹ s⁻¹.

Which Kinact/Kl does the source give for `C=CC(=O)N1Cc2nc(CN3C[C@H]4CC(=O)N(c5cc(C(F)(F)F)cc(C)n5)[C@@H]4C(=O)N(C)c4cccc(Cl)c43)cn2CC1C(F)F` (mixture of isomers) [Example 243a, (3aR,11aS)-5-(((S/R)-7-acryloyl-6-(difluoromethyl)-5,6,7,8-tetrahydroimidazo[1,2-a]pyrazin-2-yl)methyl)-6-chloro-10-methyl-1-(6-methyl-4-(trifluoromethyl)pyridin-2-yl)-1,3a,4,5,10,11a-hexahydro-2H-benzo[b]pyrrolo[2,3-f][1,4]diazocine-2,11(3H)-dione] here?
Its Kinact/Kl is 1.03e+06 M⁻¹ s⁻¹.

With `Cc1cc(C(F)(F)F)cc(N2C(=O)C[C@@H]3CN(CC(F)CCCNC(=O)/C=C/CN(C)C)c4c(Cl)cccc4N(C)C(=O)[C@H]32)n1` (stereo partly drawn) [Example 253, (E)-N-(5-((3aR,11aS)-6-chloro-10-methyl-1-(6-methyl-4-(trifluoromethyl)pyridin-2-yl)-2,11-dioxo-1,2,3,3a,4,10,11,11a-octahydro-5H-benzo[b]pyrrolo[2,3-f][1,4]diazocin-5-yl)-4-fluoropentyl)-4-(dimethylamino)but-2-enamide] as the molecule, how does the Kinact/Kl read?
Its Kinact/Kl is 1.42e+06 M⁻¹ s⁻¹.
